Data published in patent publication EP1388586A2, “Identification of broadly reactive DR restricted epitopes” (priority 1998, dated 1999).
Read-outs that look alike come from different tables or passages of the source. Square brackets hold non-standard residues; d marks the D form. Ends that are not written are not given here. Peptide text beside a SMILES is read from it.

Columns and labels:
DRB1*0101 (DR1) = target: T1, DRB1*0101 (DR1) (Homo sapiens, UniProt P01903+P01911, A100R/D57E/F55L/F60I/F76Y/I96L/L162R/M171V/P40L/Q125E/R42F/V115G/Y59C); assay: Class II peptide-binding assay, DR1;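 note: competition assay: unlabeled test peptides inhibit binding of a radiolabeled probe peptide to purified DR, with half-maximal inhibition taken as an approximate dissociation constant Kd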
T1 construct: used as sources of human HLA class II molecules; endogenous in cells; host or cells: LG2 (EBV-transformed homozygous B cell line)

DRB5*0101 (DR2w2a) = target: T2, DRB5*0101 (DR2w2a) (Homo sapiens, UniProt P01903+Q30154); assay: Class II peptide-binding assay, DR2w2a (DR2w2B2);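 note: competitive binding assay: unlabeled peptide inhibiting binding of a radiolabeled probe peptide to purified DR molecules at pH 7.0, IC50 approximating Kd, lower means stronger binding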
T2 construct: used as sources of human HLA class II molecules; endogenous in cells; host or cells: GM3107 (EBV-transformed homozygous B cell line)

DRB10404 (DR4w14) = target: T3, DRB10404 (DR4w14) (Homo sapiens, UniProt P01903+P01911, A100R/A169T/F76Y/I96L/K127E/L162R/M171V/N62H/P40V/Q125Y/R42H/S133A/S149N/S66Y/V209L/W38E); assay: Class II peptide-binding assay, DR4w14;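 note: unlabeled peptides compete with a radiolabeled probe for binding to affinity-purified HLA-DR, neutral pH, class II amount titrated to bind a small fraction of label, IC50 approximates Kd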
T3 construct: used as sources of human HLA class II molecules; endogenous in cells; host or cells: BIN40 (EBV-transformed homozygous B cell line)
Procedure: Class II peptide-binding assays. […] These assays were chosen as to be representative of the most common DR alleles.
In appropriate stoichiometric conditions, the IC50 of an unlabeled test peptide to the purified DR is a reasonable approximation of the affinity of interaction (Kd). Peptides were tested in two to four completely independent experiments. […] Final detergent concentration in the incubation mixture was 0.05% Nonidet P-40. Assays were performed at pH 7.0 with the exception of DR3, which was performed at pH 4.5, and DRw53, which was performed at pH 5.0.
All subsequent inhibition and direct binding assays were the performed using these class II concentrations.

DRB1*1101 (DR5w11) = target: T4, DRB1*1101 (DR5w11) (Homo sapiens, UniProt P01903+P01911, A100R/A169T/A87E/I96F/K41T/L162R/M171V/P40S/Q125H/Q178H/Q39Y/Q99D/R42S/S66Y/T262R/V115G/W38E); assay: Class II peptide-binding assay, DR5w11;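 note: competition by unlabeled test peptide against iodinated probe peptide binding to affinity-purified HLA-DR, class II amount titrated beforehand, half-maximal inhibitory concentration read as approximate Kd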
T4 construct: used as sources of human HLA class II molecules; endogenous in cells; host or cells: SWEIG (EBV-transformed homozygous B cell line)
T4 sequence (P01903 26-254, other chains not shown): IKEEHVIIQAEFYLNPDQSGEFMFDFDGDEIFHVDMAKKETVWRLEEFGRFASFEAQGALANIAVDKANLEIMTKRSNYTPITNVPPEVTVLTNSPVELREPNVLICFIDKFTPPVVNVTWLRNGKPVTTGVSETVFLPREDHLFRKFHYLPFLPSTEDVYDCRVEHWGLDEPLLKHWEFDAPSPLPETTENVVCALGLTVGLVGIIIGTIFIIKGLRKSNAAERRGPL

DRB1*0701 (DR7) = DRB1*0701 (DR7) (Homo sapiens, UniProt P01903+P01911, A100R/A102G/A103Q/D57E/D86V/E43K/F76Y/K127E/L162R/M171V/P40G/Q125H/Q99D/R33Q/R42Y/R54Q/S133A/S66F/T210M/V115G/Y107V/Y59L/Y89S); assay: Class II peptide-binding assay, DR7;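 note: unlabeled peptides compete with an iodinated probe peptide for binding to affinity-purified HLA-DR at neutral pH, DR amount titered to bind a small tracer fraction, IC50 approximating Kd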
DRB1*0401 (DR4w4) = target: T5, DRB1*0401 (DR4w4) (Homo sapiens, UniProt P01903+P01911, A100K/A169T/F76Y/I96L/K127E/L162R/M171V/N62H/P40V/Q125Y/R42H/S133A/S149N/S66Y/V115G/V209L/W38E); assay: Class II peptide-binding assay, DR4w4;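 note: unlabeled test peptides compete with a radiolabeled probe peptide for binding to affinity-purified HLA-DR, with DR amount titrated to capture a small fraction of label, IC50 approximating Kd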
T5 construct: used as sources of human HLA class II molecules; endogenous in cells; host or cells: PREISS (EBV-transformed homozygous B cell line)

[1] = read-out: DR1 nM (In IC50 Format), purified HLA DR1
[2] = read-out: DR2w2B2 nM (In IC50 Format), purified HLA DR2w2β2
[3] = read-out: DR4w14 nM (In IC50 Format), purified HLA DR4w14
[4] = read-out: DR5w11 nM (In IC50 Format), purified HLA DR5w11
[5] = read-out: DR7 nM (In IC50 Format), purified HLA DR7
[6] = read-out: DR2w2B2 nM, Table VIII, In IC50 Format
[7] = read-out: DR4w4 nM, Table VIII, In IC50 Format
[8] = read-out: DR4w14 nM, Table VIII, In IC50 Format
[9] = read-out: DR5w11 nM, Table VIII, In IC50 Format
[10] = read-out: DR4w4 nM (In IC50 Format), purified HLA DR4w4
[11] = read-out: DR1 nM, Table VIII, In IC50 Format

| Molecule | IC50 (DRB1*0101 (DR1); [1]) [nM] | IC50 (DRB5*0101 (DR2w2a); [2]) [nM] | IC50 (DRB10404 (DR4w14); [3]) [nM] | IC50 (DRB1*1101 (DR5w11); [4]) [nM] | IC50 (DRB1*0401 (DR4w4); [10]) [nM] | other results |
| --- | --- | --- | --- | --- | --- | --- |
| YARFQFQTTLKAKT-NH2 [Peptide 717.46] | 4.5 | 40 | 2.6 | 3.7 | – | IC50 (DRB1*0701 (DR7); [5]): 4170 nM |
| CC(C)C[C@H](NC(=O)[C@@H](NC(=O)[C@@H](NC(=O)[C@H](CCC(N)=O)NC(=O)[C@H](CO)NC(=O)[C@H](CCC(N)=O)NC(=O)[C@H](Cc1ccccc1)NC(=O)[C@H](C)NC(=O)[C@H](C)NC(=O)[C@H](N)Cc1ccc(O)cc1)[C@@H](C)O)[C@@H](C)O)C(=O)N[C@@H](CCCCN)C(=O)N[C@@H](C)C(=O)N[C@@H](CCCCN)C(=O)N[C@@H](C(N)=O)[C@H](C)O [Peptide 858.04] (H-[dY]AAFQSQTTLKAK[dT]-NH2) | – | – | – | – | – | IC50 (DRB5*0101 (DR2w2a); [6]): 141 nM; IC50 (DRB1*0401 (DR4w4); [7]): 4.5 nM; IC50 (DRB10404 (DR4w14); [8]): 15.6 nM; IC50 (DRB1*1101 (DR5w11); [9]): 19.6 nM; IC50 (DRB1*0701 (DR7); read-out: DR7 nM, Table VIII, In IC50 Format): 25000 nM |
| YARFQSETTEKAKT-NH2 [Peptide 717.07] | – | 5000 | 806 | – | 64.3 | – |
| C[C@H](NC(=O)[C@H](C)NC(=O)[C@H](C)NC(=O)[C@H](C)NC(=O)[C@H](Cc1ccc(O)cc1)NC(=O)[C@H](C)NC(=O)[C@@H](C)N)C(=O)N[C@@H](C)C(=O)N[C@@H](C)C(=O)N[C@@H](CCCCN)C(=O)N[C@@H](C)C(=O)N[C@@H](C)C(=O)N[C@H](C)C(N)=O [Peptide 762.01] (H-[dA]AYAAAAAAKAA[dA]-NH2) | 1.7 | 27.4 | – | 46.8 | 7.1 | IC50 (DRB1*0701 (DR7); [5]): 1670 nM |
| CC(C)C[C@H](NC(=O)[C@@H](NC(=O)[C@@H](NC(=O)[C@H](CCC(N)=O)NC(=O)[C@H](CO)NC(=O)[C@H](CCC(N)=O)NC(=O)[C@H](Cc1ccccc1)NC(=O)[C@H](CCCNC(=N)N)NC(=O)[C@H](C)NC(=O)[C@H](N)Cc1ccc(O)cc1)[C@@H](C)O)[C@@H](C)O)C(=O)N[C@@H](CCCCN)C(=O)N[C@@H](C)C(=O)N[C@@H](CCCCN)C(=O)N[C@@H](C(N)=O)[C@H](C)O [Peptide 858.06] (H-[dY]ARFQSQTTLKAK[dT]-NH2) | – | – | – | – | – | IC50 (DRB1*0101 (DR1); [11]): 4.5 nM; IC50 (DRB5*0101 (DR2w2a); [6]): 64 nM; IC50 (DRB1*0401 (DR4w4); [7]): 5 nM; IC50 (DRB1*1101 (DR5w11); [9]): 18.2 nM |
| QPDVRPQPPSPREGP [Peptide 39.0280] | – | – | – | – | – | IC50 (DRB1*0101 (DR1); Table VIII, page 2, read-out: In IC50 Format DR1): 7140 nM |
| YARFQRQTTLKIAT [Peptide 716.01] | 2.9 | 95.2 | 111 | – | 16.7 | IC50 (DRB1*0701 (DR7); [5]): 42.7 nM |
| CC[C@H](C)[C@H](NC(=O)[C@H](CCSC)NC(=O)[C@H](Cc1c[nH]c2ccccc12)NC(=O)[C@H](CS)NC(=O)[C@H](CCCCN)NC(=O)[C@@H](NC(=O)[C@H](CCSC)NC(=O)[C@@H](NC(=O)[C@H](CCSC)NC(=O)[C@H](Cc1ccc(O)cc1)NC(=O)[C@@H](NC(=O)[C@@H](N)CC(=O)O)C(C)C)[C@@H](C)CC)C(C)C)C(=O)N[C@@H](CC(=O)O)C(=O)N[C@@H](CO)C(=O)N[C@@H](CCC(=O)O)C(=O)O [Peptide 39.0277] | – | – | – | – | – | IC50 (DRB1*0401 (DR4w4); Table VIII, page 2, read-out: In IC50 Format DR4w4 nM): 790 nM; IC50 (DRB1*1101 (DR5w11); Table VIII, page 2, read-out: In IC50 Format DR5w11 nM): 909 nM |
| YARFQSQTPLKAKT-NH2 [Peptide 717.37] | 2.5 | 64.5 | 67.5 | 8 | 9 | – |
| CC(C)C[C@H](NC(=O)[C@@H](NC(=O)[C@@H](NC(=O)[C@H](CCC(N)=O)NC(=O)[C@H](CCCNC(=N)N)NC(=O)[C@H](CCC(N)=O)NC(=O)[C@@H](N)Cc1ccccc1)[C@@H](C)O)[C@@H](C)O)C(=O)N[C@@H](CCCCN)C(=O)N[C@@H](C)C(=O)N[C@@H](C)C(=O)N[C@H](C)C(N)=O [Peptide 781.06] (H-FQRQTTLKAA[dA]-NH2) | 19.2 | – | 13.9 | – | 2.4 | – |
| CC(C)C[C@H](NC(=O)[C@@H](NC(=O)[C@@H](NC(=O)[C@H](CCC(N)=O)NC(=O)[C@H](CCCNC(=N)N)NC(=O)[C@H](CCC(N)=O)NC(=O)[C@H](Cc1ccccc1)NC(=O)[C@H](CCCNC(=N)N)NC(=O)[C@H](C)NC(=O)[C@H](N)Cc1ccc(O)cc1)[C@@H](C)O)[C@@H](C)O)C(=O)N[C@@H](CCCCN)C(=O)N[C@@H](C)C(=O)N[C@@H](C)C(=O)N[C@H](C)C(N)=O [Peptide 781.09] (H-[dY]ARFQRQTTLKAA[dA]-NH2) | 2.8 | 37.7 | 7.4 | 7.4 | 2 | – |
| CC(C)C[C@H](NC(=O)[C@@H](NC(=O)[C@@H](NC(=O)[C@H](CCC(N)=O)NC(=O)[C@H](CO)NC(=O)[C@H](CCC(N)=O)NC(=O)[C@H](Cc1ccccc1)NC(=O)[C@H](CCCCN)NC(=O)[C@H](C)NC(=O)[C@H](N)Cc1ccc(O)cc1)[C@@H](C)O)[C@@H](C)O)C(=O)N[C@@H](CCCCN)C(=O)N[C@@H](C)C(=O)N[C@@H](CCCCN)C(=O)N[C@@H](C(N)=O)[C@H](C)O [Peptide 858.02] (H-[dY]AKFQSQTTLKAK[dT]-NH2) | – | – | – | – | – | IC50 (DRB1*0101 (DR1); [11]): 9 nM; IC50 (DRB5*0101 (DR2w2a); [6]): 32.4 nM; IC50 (DRB1*0401 (DR4w4); [7]): 6.4 nM; IC50 (DRB10404 (DR4w14); [8]): 17.9 nM; IC50 (DRB1*1101 (DR5w11); [9]): 16.3 nM |
